Reference: patent publication US6518423B1, “Benzopiperidine derivatives” (Eisai Co., Ltd., priority 1996, dated 2003)

Row | SMILES | melting point
1 | CCOC(=O)/C=C/c1cccc(C(O)c2ccc3c(c2)Nc2nccnc2S3)n1 (stereo not drawn) | 160 to 170 °C (dec.)
2 | O=C(O)CC1(O)C2CCCCCC1CN(Cc1ccc3c(c1)Nc1nccnc1S3)C2 (stereo not drawn) | 217 to 218 °C (dec.)
3 | CN(C)S(=O)(=O)NCC1C2CCCC1CN(Cc1ccc3c(c1)Nc1nccnc1S3)C2 (stereo not drawn) | 215 to 219 °C
4 | Cl.c1ccc(CN2CCCN=C2Cc2ccc3c(c2)Nc2nccnc2S3)cc1 | 153 to 155 °C (dec.)
5 | N#C/N=C(/Cc1ccc2c(c1)Nc1nccnc1S2)NCc1ccccn1 | 195 to 196 °C
6 | COC(=O)CC1C2CCCC1CN(Cc1ccc3c(c1)N(C(=O)OC)c1nccnc1S3)C2 (stereo not drawn) | 106 to 108 °C
7 | CS(=O)(=O)N1CCN(Cc2ccc3c(c2)Nc2nccnc2S3)CC1 | 221 to 222 °C
8 | CN(C)S(=O)(=O)NC1CCN(Cc2cnc3c(c2)Nc2nccnc2S3)CC1 | 205 to 210 °C
9 | O=C(CCCC1CCN(Cc2ccc3c(c2)Nc2nccnc2S3)CC1)Nc1nnn[nH]1 | 190 to 191 °C
10 | CN1C2CCC1CC(NC(=O)CC1CC3(CCN(Cc4ccc5c(c4)Nc4nccnc4S5)CC3)C1)C2 (stereo not drawn) | 181 to 184 °C
11 | CS(=O)(=O)N1CCCN(Cc2ccc3c(c2)Nc2nccnc2S3)CC1 | 158 to 160 °C
12 | O=S(=O)(CCC1CCN(Cc2ccc3c(c2)Nc2nccnc2S3)CC1)N1CCOCC1 | 193 to 194 °C
13 | O=C(O)CCN1CCC(NCc2ccc3c(c2)Nc2nccnc2S3)CC1 | 130 to 134 °C
14 | CC(CCC1(CO)CCN(Cc2ccc3c(c2)Nc2nccnc2S3)CC1)C(=O)O (stereo not drawn) | 105 to 110 °C
15 | COc1cc(C2CCN(Cc3ccc4c(c3)Nc3nccnc3S4)CC2)ccc1CC(=O)O | 171 to 177 °C (dec.)
16 | O=C(O)C1(c2ccccc2)CCN(Cc2ccc3c(c2)Nc2nccnc2S3)CC1 | > 297 °C
17 | COCN1c2ccccc2Nc2nccnc21 | 185 to 188 °C
18 | CN1c2ccc(C(O)c3nccs3)cc2Nc2nccnc21 (stereo not drawn) | 203 to 204 °C
19 | CN1c2ccc(C(=O)c3ccccn3)cc2Nc2nccnc21 | 261 to 262 °C
20 | CN1c2ccc(C#CC(=O)O)cc2Nc2nccnc21 | > 275 °C
21 | CCOC(=O)COc1ccc(NCc2ccc3c(c2)Nc2nccnc2S3)cn1 | 230 to 235 °C
22 | CCOC(=O)CCCCCOc1ccc(NCc2ccc3c(c2)Nc2nccnc2S3)cn1 | 105 to 108 °C

More lines, now with the values ahead:

Row | melting point | SMILES
23 | 280 °C (dec.) | C/C(=C\c1ncn(Cc2ccc3c(c2)Nc2nccnc2S3)c1C)C(N)=O
24 | 247 to 250 °C | OCc1nccn1Cc1ccc2c(c1)Nc1nccnc1S2
25 | 178 to 182 °C | Cc1ncn(Cc2ccc3c(c2)Nc2nccnc2S3)c1C(C)O (stereo not drawn)
26 | 265 °C (dec.) | c1cnc2ncn(Cc3ccc4c(c3)Nc3nccnc3S4)c2c1
27 | 197 to 198 °C | c1ccn(Cc2ccc3c(c2)Nc2nccnc2S3)c1
28 | 105 to 107 °C | OC(c1ccc2c(c1)Nc1nccnc1S2)c1ncccn1 (stereo not drawn)
29 | 243 to 245 °C (dec.) | O=C(NCc1ccc2c(c1)Nc1nccnc1S2)c1cccnc1
30 | 320 to 322 °C | O=C(Nc1nccs1)c1ccc2c(c1)Nc1nccnc1S2
31 | 265 to 268 °C | CN(C)c1ncnc2ncn(Cc3ccc4c(c3)Nc3nccnc3S4)c12
32 | 231 to 233 °C | CN(C)c1ncnc2c1nc(C(F)(F)F)n2Cc1ccc2c(c1)Nc1nccnc1S2
33 | > 275 °C | O=c1[nH]cnc2ncn(Cc3ccc4c(c3)Nc3nccnc3S4)c12
34 | 191 to 193 °C | Cc1nc2cncnc2n1Cc1ccc2c(c1)Nc1nccnc1S2
35 | 226 to 229 °C | NCCN1CCN(c2ncnc3c2ncn3Cc2ccc3c(c2)Nc2nccnc2S3)CC1
36 | > 275 °C | CCc1ncnc2ncn(Cc3ccc4c(c3)Nc3nccnc3S4)c12
37 | 156 to 163 °C | Cl.OC1CN=C(Cc2ccc3c(c2)Nc2nccnc2S3)NC1 (stereo not drawn)
38 | 199 to 203 °C | O=C1CCC2(CCN(Cc3ccc4c(c3)Nc3nccnc3S4)CC2)O1
39 | 179 to 182 °C | c1ccc(CCNCc2ccc3c(c2)Nc2nccnc2S3)nc1
